Measurements as given in patent US11712426B2, “Metallo-liothyronine” (Synthonics, Inc., priority 2018, dated 2023).

Key:
[1] = cited from earlier work; for pKa 1 / pKa 2 / pKa 3: Table 1; for pKa of the carboxylic acid(s): carboxylic acid / COOH group
[2] = pH 5.0 and above; cited from earlier work
[3] = in vivo; cited from earlier work
[4] = plasma profiles of Na(HT3), Zn(HT3)2 and [Zn(T3)]n after oral administration (Example 11); assay type: in vivo, male Sprague Dawley rats; details: for Cmax average / AUC average / FWHM average (Full Width at Half Maximum): PO capsule; for Cmax average: D = duodenum targeting (Eudragit L100-55) for Zn compounds, S = stomach (uncoated gel cap) for Na(HT3); for AUC average / FWHM average (Full Width at Half Maximum): D for Zn compounds, S for Na(HT3)
Procedure: Duodenum targeting (D) is accomplished by hand coating caps with Eudragit L100-55 (Acryl-Eze, water solvent) designed to dissolve in the duodenum at pH ca. 5.5. Stomach targeting (S) is by using uncoated gel caps.
The Full Width at Half Maximum (FWHM), where Width is measured along the time axis, and Half Maximum is ½Cmax, is a parameter used to evaluate the degree of extended release of drug absorption.

| SMILES | pKa 1 [1] | pKa 2 [1] | also measured |
| --- | --- | --- | --- |
| CC1(C)S[C@@H]2[C@H](NC(=O)[C@H](N)c3ccc(O)cc3)C(=O)N2[C@H]1C(=O)O [Amoxicillin] | 6.71 | 9.41 | pKa of the carboxylic acid(s) [1]: 6.71; pKa of the phenol ([1]; phenol group): 9.41 |
| CN(C)[C@@H]1C(O)=C(C(N)=O)C(=O)[C@@]2(O)C(O)=C3C(=O)c4c(O)ccc(Cl)c4[C@@](C)(O)[C@H]3C[C@@H]12 [Chlortetracycline] | 3.33 | 7.55 | pKa 3 [1]: 9.33 |
| CCN1CCN(c2cc3c(cc2F)c(=O)c(C(=O)O)cn3C2CC2)CC1 [Enrofloxacin] | 3.85 | 6.19 | – |
| O=C(O)c1cn(-c2ccc(F)cc2)c2cc(N3CCNCC3)c(F)cc2c1=O [Sarafloxacin] | 5.62 | 8.18 | – |
| CCCCC(=O)N(Cc1ccc(-c2ccccc2-c2nnn[nH]2)cc1)[C@H](C(=O)O)C(C)C [Valsartan] | – | – | in vitro dissolution [2]: complete and rapid; bioavailability [3]: about 25% |
| N[C@@H](Cc1cc(I)c(Oc2ccc(O)c(I)c2)c(I)c1)C(=O)[O-].N[C@@H](Cc1cc(I)c(Oc2ccc(O)c(I)c2)c(I)c1)C(=O)[O-].[Zn+2] [Zn(HT3)2, Bis-T3 Zinc] | – | – | AUC with respect to simulated Cytomel ([4]; PO): comparable AUC; Cmax with respect to simulated Cytomel ([4]; PO): blunted Cmax; Cmax average [4]: 0.24 ng/mL; AUC average [4]: 3.45 ng·h/mL; FWHM average (Full Width at Half Maximum) [4]: 16.6 h |
| CN(Cc1cnc2nc(N)nc(N)c2n1)c1ccc(C(=O)N[C@@H](CCC(=O)O)C(=O)O)cc1 [Methotrexate] | 4.8 | – | – |
| N[C@@H](Cc1cc(I)c(Oc2ccc(O)c(I)c2)c(I)c1)C(=O)O [Example T3, triiodothyronine] | – | – | pKa (physchem): 8.94 |
| CN(C)[C@@H]1C(O)=C(C(N)=O)C(=O)[C@@]2(O)C(O)=C3C(=O)c4c(O)cccc4[C@@](C)(O)[C@H]3[C@H](O)[C@@H]12 [Oxytetracycline] | 3.22 | 7.46 | pKa 3 [1]: 8.94 |
| CN1CCN(c2c(F)cc3c(=O)c(C(=O)O)cn4c3c2OCN4C)CC1 [Marbofloxacin] | 5.69 | 8.02 | – |
| CO[C@@]1(NC(=O)C2SC(=C(C(N)=O)C(=O)O)S2)C(=O)N2C(C(=O)O)=C(CSc3nnnn3C)CS[C@@H]21 (stereo partly shown) [Cefotetan] | ca. 2 | ca. 3 | pKa of the carboxylic acid(s) [1]: 2-3 |
| CN(C)[C@@H]1C(O)=C(C(N)=O)C(=O)[C@@]2(O)C(O)=C3C(=O)c4c(O)ccc(Cl)c4[C@@H](O)[C@H]3C[C@@H]12 [Demeclocycline] | 3.37 | 7.36 | pKa 3 [1]: 9.44 |
| C=C1c2c(Cl)ccc(O)c2C(=O)C2=C(O)[C@]3(O)C(=O)C(C(N)=O)=C(O)[C@@H](N(C)C)[C@@H]3[C@@H](O)[C@H]12 [Meclocycline] | 4.05 | 6.87 | pKa 3 [1]: 9.59 |
| CCn1cc(C(=O)O)c(=O)c2cc(F)c(N3CCNCC3)nc21 [Enoxacin] | 6.00 | 8.50 | – |
| CN1C[C@@H]2C[C@H]1CN2c1cc2c(cc1F)c(=O)c(C(=O)O)cn2C1CC1 [Danofloxacin] | 6.07 | 8.56 | – |
| CC1COc2c(N3CCN(C)CC3)c(F)cc3c(=O)c(C(=O)O)cn1c23 (stereo not shown) [Ofloxacin] | 6.22 | 7.81 | – |
| CN1CCN(c2c(F)cc3c(=O)c(C(=O)O)cn(CCF)c3c2F)CC1 [Fleroxacin] | 5.46 | 8.00 | – |
| CCn1cc(C(=O)O)c(=O)c2cnc(N3CCNCC3)nc21 [Pipemidic acid] | 5.42 | 8.18 | – |
| C[C@H]1c2cccc(O)c2C(=O)C2=C(O)[C@]3(O)C(=O)C(C(N)=O)=C(O)[C@@H](N(C)C)[C@@H]3[C@@H](O)[C@@H]21 [Doxycycline] | 3.02 | 7.97 | pKa 3 [1]: 9.15 |
| N[C@@H](Cc1cc(I)c(Oc2ccc(O)c(I)c2)c(I)c1)C(=O)[O-].[Na+] [Na(HT3)] | – | – | Cmax average [4]: 0.45 ng/mL; AUC average [4]: 3.71 ng·h/mL; FWHM average (Full Width at Half Maximum) [4]: 4.9 h |
| CN1CCN(c2cc3c(cc2F)c(=O)c(C(=O)O)cn3-c2ccc(F)cc2)CC1 [Difloxacin] | 5.66 | 7.24 | – |
